Data: PubChem BioAssay (NCI)
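In this assay, cells in 96-well plates receive the compound at five concentrations for 48 hours. Endpoints are linearly interpolated between the surrounding concentrations. TGI: total growth inhibition.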

Tests used:
Assay in all cases: growth of human tumour cells (NCI), 48 h
[1] = test system: OVCAR-3 ovarian
[2] = test system: DU-145 prostate
[3] = test system: SNB-75 CNS
[4] = test system: SN12C renal
[5] = test system: SW-620 colon
[6] = test system: NCI-H460 lung
[7] = test system: MOLT-4 leukemia
[8] = test system: NCI/ADR-RES ovarian
[9] = test system: PC-3 prostate
[10] = test system: KM12 colon
[11] = test system: IGROV1 ovarian
[12] = test system: CCRF-CEM leukemia
[13] = test system: HT29 colon
[14] = test system: NCI-H23 lung
[15] = test system: OVCAR-4 ovarian
[16] = test system: MCF7 breast
[17] = test system: SK-MEL-5 melanoma
[18] = test system: K-562 leukemia
[19] = test system: MDA-MB-435
[20] = test system: RXF 393 renal

SMILES	TGI [1] [µM]	TGI [2] [µM]	TGI [3] [µM]	TGI [4] [µM]	TGI [5] [µM]	TGI [6] [µM]	TGI [7] [µM]	TGI [8] [µM]	TGI [9] [µM]	TGI [10] [µM]	TGI [11] [µM]	TGI [12] [µM]	TGI [13] [µM]	TGI [14] [µM]	TGI [15] [µM]	TGI [16] [µM]	TGI [17] [µM]	TGI [18] [µM]	TGI [19] [µM]	TGI [20] [µM]
CN(C)CCN(C(=Nc1ccccc1)N1CCCC1)c1ccccc1	> 100	> 100	> 100	> 100	> 100	> 100	> 100	> 100	> 100	> 100	> 100	> 100	92.4	> 100	> 100	> 100	> 100	> 100	> 100	
Cc1ccc(S(=O)(=O)NCCCSCCSCCCN)cc1	> 100	> 100	> 100	> 100	> 100	> 100	> 100	> 100	> 100	> 100		> 100	> 100	> 100	> 100	> 100	> 100	> 100	> 100	> 100
COc1cc(C(=O)Nc2cc(C(N)=O)cc(OC)c2OC)cc(NC(=O)/C=C/c2ccccc2)c1OC	> 100	> 100		85.6	> 100	> 100	> 100	> 100	> 100	> 100	> 100	> 100	> 100	> 100	> 100	> 100		> 100	> 100	> 100
COC(=O)C1=C(C)N2CCOC2CC1c1ccccc1 (stereo not given)	> 100		> 100		> 100	> 100	> 100			> 100	> 100	> 100	> 100	> 100	> 100		> 100	> 100		> 100
CN1C(=O)C2C=C3CCCCC3=CC2N(C)C1=O (stereo not given)	> 100	> 100	> 100	> 100	> 100	> 100	> 100	> 100	> 100	> 100	> 100	> 100	> 100	> 100	> 100	> 100	> 100	> 100	> 100	> 100
O=C(N/N=C\C(F)(F)F)c1ccncc1	> 100	> 100	> 100	> 100	> 100	> 100	> 100	> 100	> 100	> 100	> 100	> 100	> 100	50.6	> 100	> 100	> 100	> 100	> 100	> 100
COc1cc2oc(=O)ccc2cc1CC=C(C)C	> 100	> 100	> 100	> 100	> 100	> 100	> 100	79.3	> 100	> 100	> 100	> 100	77.7	> 100	> 100	> 100	73.7	> 100	> 100	64.7
